Results: PubChem BioAssay (NCI)
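Where inhibition never reached the appropriate level, the endpoint shown equals the highest concentration tested. Otherwise, values were interpolated linearly from a five-concentration, 48-hour dose response in 96-well plates. Abbreviation: GI50, concentration required for 50% inhibition of growth. At the TGI there is no net growth.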

Experiments:
Assay in all cases: NCI anticancer screen, dose series, 48 h
786-0 renal = tested on: 786-0 renal
A498 renal = tested on: A498 renal
A549 NSCLC = tested on: A549 NSCLC
ACHN renal = tested on: ACHN renal
BT-549 breast = tested on: BT-549 breast
CAKI-1 renal = tested on: CAKI-1 renal
CCRF-CEM leukemia = tested on: CCRF-CEM leukemia
COLO 205 colon = tested on: COLO 205 colon
DU-145 prostate = tested on: DU-145 prostate
EKVX NSCLC = tested on: EKVX NSCLC
HCC-2998 colon = tested on: HCC-2998 colon
HCT-116 colon = tested on: HCT-116 colon
HCT-15 colon = tested on: HCT-15 colon
HL-60(TB) leukemia = tested on: HL-60(TB) leukemia
HOP-62 NSCLC = tested on: HOP-62 NSCLC
HOP-92 NSCLC = tested on: HOP-92 NSCLC
HS 578T breast = tested on: HS 578T breast
HT29 colon = tested on: HT29 colon
IGROV1 ovarian = tested on: IGROV1 ovarian
K-562 leukemia = tested on: K-562 leukemia
KM12 colon = tested on: KM12 colon
LOX IMVI melanoma = tested on: LOX IMVI melanoma
M14 melanoma = tested on: M14 melanoma
MALME-3M melanoma = tested on: MALME-3M melanoma
MCF7 breast = tested on: MCF7 breast
MDA-MB-231 breast = tested on: MDA-MB-231 breast
MDA-MB-435 = tested on: MDA-MB-435
MOLT-4 leukemia = tested on: MOLT-4 leukemia
NCI-H226 lung = tested on: NCI-H226 lung
NCI-H460 lung = tested on: NCI-H460 lung
NCI-H522 lung = tested on: NCI-H522 lung
NCI/ADR-RES ovarian = tested on: NCI/ADR-RES ovarian
OVCAR-3 ovarian = tested on: OVCAR-3 ovarian
OVCAR-4 ovarian = tested on: OVCAR-4 ovarian
OVCAR-5 ovarian = tested on: OVCAR-5 ovarian
OVCAR-8 ovarian = tested on: OVCAR-8 ovarian
PC-3 prostate = tested on: PC-3 prostate
RPMI-8226 leukemia = tested on: RPMI-8226 leukemia
RXF 393 renal = tested on: RXF 393 renal
SF-268 CNS = tested on: SF-268 CNS
SF-295 CNS = tested on: SF-295 CNS
SF-539 CNS = tested on: SF-539 CNS
SK-MEL-2 melanoma = tested on: SK-MEL-2 melanoma
SK-MEL-28 melanoma = tested on: SK-MEL-28 melanoma
SK-MEL-5 melanoma = tested on: SK-MEL-5 melanoma
SK-OV-3 ovarian = tested on: SK-OV-3 ovarian
SN12C renal = tested on: SN12C renal
SNB-19 CNS = tested on: SNB-19 CNS
SNB-75 CNS = tested on: SNB-75 CNS
SR leukemia = tested on: SR leukemia
SW-620 colon = tested on: SW-620 colon
T-47D breast = tested on: T-47D breast
TK-10 renal = tested on: TK-10 renal
U251 CNS = tested on: U251 CNS
UACC-257 melanoma = tested on: UACC-257 melanoma
UACC-62 melanoma = tested on: UACC-62 melanoma
UO-31 renal = tested on: UO-31 renal

O=C(CSc1nc2sc3c(c2c(=O)n1-c1ccc(Cl)cc1)CCCC3)NNC(=O)Nc1cccc(C(F)(F)F)c1
GI50 (786-0 renal): 2.7 µM
TGI (786-0 renal): 9.79 µM
GI50 (A498 renal): 1.96 µM
TGI (A498 renal): 4.85 µM
GI50 (A549 NSCLC): 2.97 µM
TGI (A549 NSCLC): 12.3 µM
GI50 (ACHN renal): 3.67 µM
TGI (ACHN renal): 14.9 µM
GI50 (BT-549 breast): 2.02 µM
TGI (BT-549 breast): 5.9 µM
GI50 (CAKI-1 renal): 2.31 µM
TGI (CAKI-1 renal): 7.14 µM
GI50 (CCRF-CEM leukemia): 3.53 µM
TGI (CCRF-CEM leukemia): > 100 µM
GI50 (COLO 205 colon): 1.92 µM
TGI (COLO 205 colon): 3.52 µM
GI50 (DU-145 prostate): 4.12 µM
TGI (DU-145 prostate): > 100 µM
GI50 (EKVX NSCLC): 2.45 µM
TGI (EKVX NSCLC): 8.32 µM
GI50 (HCC-2998 colon): 2.99 µM
TGI (HCC-2998 colon): 11.9 µM
GI50 (HCT-116 colon): 1.98 µM
TGI (HCT-116 colon): 4.01 µM
GI50 (HCT-15 colon): 3.05 µM
TGI (HCT-15 colon): 11.5 µM
GI50 (HL-60(TB) leukemia): 2.39 µM
TGI (HL-60(TB) leukemia): 6.57 µM
GI50 (HOP-62 NSCLC): 3.3 µM
TGI (HOP-62 NSCLC): 13.5 µM
GI50 (HOP-92 NSCLC): 1.66 µM
TGI (HOP-92 NSCLC): 4.2 µM
GI50 (HS 578T breast): 3.1 µM
TGI (HS 578T breast): 21.6 µM
GI50 (HT29 colon): 2.33 µM
TGI (HT29 colon): 5.85 µM
GI50 (IGROV1 ovarian): 5.33 µM
TGI (IGROV1 ovarian): 25 µM
GI50 (K-562 leukemia): 2.64 µM
TGI (K-562 leukemia): > 100 µM
GI50 (KM12 colon): 3.75 µM
TGI (KM12 colon): 23.5 µM
GI50 (LOX IMVI melanoma): 1.68 µM
TGI (LOX IMVI melanoma): 3.33 µM
GI50 (M14 melanoma): 3.2 µM
TGI (M14 melanoma): 11.3 µM
GI50 (MALME-3M melanoma): 2.06 µM
TGI (MALME-3M melanoma): 5.23 µM
GI50 (MCF7 breast): 2.4 µM
TGI (MCF7 breast): 10 µM
GI50 (MDA-MB-231 breast): 2.76 µM
TGI (MDA-MB-231 breast): 8.65 µM
GI50 (MDA-MB-435): 2.89 µM
TGI (MDA-MB-435): 8.95 µM
GI50 (MOLT-4 leukemia): 2.9 µM
TGI (MOLT-4 leukemia): > 100 µM
GI50 (NCI-H226 lung): 2.78 µM
TGI (NCI-H226 lung): 8.31 µM
GI50 (NCI-H460 lung): 3.12 µM
TGI (NCI-H460 lung): 10.5 µM
GI50 (NCI-H522 lung): 1.81 µM
TGI (NCI-H522 lung): 4.51 µM
GI50 (NCI/ADR-RES ovarian): 3.12 µM
TGI (NCI/ADR-RES ovarian): 14 µM
GI50 (OVCAR-3 ovarian): 3.15 µM
TGI (OVCAR-3 ovarian): 11.5 µM
GI50 (OVCAR-4 ovarian): 2.44 µM
TGI (OVCAR-4 ovarian): 6.78 µM
GI50 (OVCAR-5 ovarian): 4.21 µM
TGI (OVCAR-5 ovarian): 31 µM
GI50 (OVCAR-8 ovarian): 2.85 µM
TGI (OVCAR-8 ovarian): 9.3 µM
GI50 (PC-3 prostate): 2.5 µM
GI50 (RPMI-8226 leukemia): 2.87 µM
TGI (RPMI-8226 leukemia): > 100 µM
GI50 (RXF 393 renal): 2.31 µM
TGI (RXF 393 renal): 6.48 µM
GI50 (SF-268 CNS): 5.82 µM
TGI (SF-268 CNS): 48.6 µM
GI50 (SF-295 CNS): 2.28 µM
TGI (SF-295 CNS): 6.16 µM
GI50 (SF-539 CNS): 3.46 µM
TGI (SF-539 CNS): 11.9 µM
GI50 (SK-MEL-2 melanoma): 2.21 µM
TGI (SK-MEL-2 melanoma): 5.75 µM
GI50 (SK-MEL-28 melanoma): 3.69 µM
TGI (SK-MEL-28 melanoma): 14 µM
GI50 (SK-MEL-5 melanoma): 2.88 µM
TGI (SK-MEL-5 melanoma): 8.81 µM
GI50 (SK-OV-3 ovarian): 2.13 µM
TGI (SK-OV-3 ovarian): 6.06 µM
GI50 (SN12C renal): 2.83 µM
TGI (SN12C renal): 8.44 µM
GI50 (SNB-19 CNS): 3.97 µM
TGI (SNB-19 CNS): 77.3 µM
GI50 (SNB-75 CNS): 3.42 µM
TGI (SNB-75 CNS): 18.9 µM
GI50 (SR leukemia): 2.74 µM
TGI (SR leukemia): > 100 µM
GI50 (SW-620 colon): 3.49 µM
TGI (SW-620 colon): 15 µM
GI50 (T-47D breast): 2.29 µM
TGI (T-47D breast): 7.14 µM
GI50 (TK-10 renal): 3.43 µM
TGI (TK-10 renal): 9.9 µM
GI50 (U251 CNS): 2 µM
TGI (U251 CNS): 4.39 µM
GI50 (UACC-257 melanoma): 2.36 µM
TGI (UACC-257 melanoma): 6.96 µM
GI50 (UACC-62 melanoma): 2.38 µM
TGI (UACC-62 melanoma): 7.4 µM
GI50 (UO-31 renal): 2.84 µM
TGI (UO-31 renal): 12.6 µM
